Assay results from patent US20020147136A1, “Compounds for targeting endothelial cells, compositions containing the same and methods for their use” (priority 2000, published 2002).
Residues, ends and D or L forms follow the SMILES beside them.

Experiments:
[1] = target: NP-1/Fc; assay: Inhibition of 125I-VEGF165 binding to NP-1/Fc; conditions: 250 pM 125I-VEGF165, 4° C., 2 hours
Description: The ability of various compositions comprising TKPPR monomers or multimers to inhibit ^125I-VEGF binding to NP-1 was evaluated using NP-1/Fc. Competitive binding assays with microtiter plates coated with NP-1/Fc (R&D sytems) were performed using ^125I-VEGF165 as radioligand (Amersham Pharmacia Biotech Cat. No. IM274, Specific Activity: 1000-2500 Ci/mmol). […] Plates (Nunc MaxiSorp white opaque Microtiter plate [C-bottom, 437796]) were coated by incubating the wells with 75 µl of a solution containing 3 μlg/mL NP-1/Fc in D-PBS/0.1% NaAzide overnight at 4° C. after covering with sealing tape (Dynex, VWR Cat. No. 62402-931). […] All points were derived from triplicate wells, and for each set of replicates in NP-1/Fc-coated wells, a companion set in the absence of the receptor was included. For competitive binding, a series of unlabelled competitor concentrations were prepared in a 250 pM solution of ^1251-VEGF165 in assay buffer Solutions were added to 1.2 ml polypropylene tubes conforming to the microtiter format (Costar Cat. No. 29442-602), and transferred from these tubes to microtiter wells, without further dilution, using a multichannel pipettor. After addition of the appropriate solutions, microtiter plates were incubated at 4° C. for 2 hours. […] The plates were blotted dry and 25 μl deionized water and 100 μl scintillation fluid (Optiphase SuperMix, Wallac) were added to each well. Plates were agitated using a Plate Shaker (Hyperion, Cat. No. 4030-100F) for 3-5 minutes and were then counted using a Microplate Scintillation Counter (Wallac Microbeta Trilux) A set of serially diluted 125I-VEGF165 standard wells ranging from 200 to 0.04 pM were included with each experiment to aid in quantification of the amount of radiolabel bound.

[2] = tested on: HAEC; assay: Inhibition of TKPPR-bubble binding to HAEC in static culture by competing agents; type: cell-based, human; conditions: for inhibition of bubble binding: 10 μM free TKPPR; for Bubbles Bound (average of duplicate): 1% BRU-114 bubbles
Description: Vials of the compositions of example 5 and of example 6 may be reconstituted with 5 mL of sterile saline, injected using a 20-guage 1.5 inch needle. Bubbles may be then formed within the vials by shaking by hand vigorously for 30 seconds. 1 to 5 mL of the bubble formulation may be removed from each vial and diluted with 3 volumes of D-PBS (without calcium or magnesium) within 1 hour of use.
Chamber slides containing confluent HAEC may be drained of culture medium, which was immediately replaced with one of the final bubble solutions prepared above. The wells may be slightly overfilled such that the liquid meniscus protrudes slightly above the plastic well-forming scaffold of the slide. Bubble solutions may be only added to alternate wells to minimize liquid cross-talk. The wells may be sealed with a piece of Parafilm and the slide incubated 20 minutes, inverted (according to Klibanov A. L., Advanced drug Delivery Reviews, 37, 1999, 139-157) to allow the bubbles to rise and make contact with the cells, after which the solutions may be poured off. Weakly associated bubbles may be removed by washing each well twice with 0.5 mL of D-PBS, swirling gently each time before pouring off. Additional D-PBS (0.5 mL) may be added to wells after the washes to keep the cells submerged until microscopic evaluation.
Composition I of Example 5 was repeated exactly as described except that 0.5 mg DPPE-GTKPPR was added (instead of 2.5 mg) yielding compositions with 1% DPPE-GTKPPR. Vials of this composition as well as that of composition I ofExample 5 (5% DPPE-GTKPPR) were reconstituted with 5 mL of sterile saline, injected using a 20-guage 1.5 inch needle. Bubbles were then formed within the vials by shaking by hand vigorously for 30 seconds. 1 to 5 mL of the bubble formulation was removed from each vial and diluted with 3 volumes of D-PBS (without calcium or magnesium) within 1 hour of use.
Chamber slides containing confluent HAEC were drained of culture medium, which was immediately replaced with one of the final bubble solutions prepared above. The wells were slightly overfilled such that the liquid meniscus protruded slightly above the plastic well-forming scaffold of the slide. Bubble solutions were only added to alternate wells to minimize liquid cross-talk. The wells were sealed with a piece of Parafilm and the slide was incubated 20 minutes, inverted to allow the bubbles to rise and make contact with the cells, after which the solutions were poured off. Weakly associated bubbles were removed by washing each well twice with 0.5 mL of D-PBS, swirling gently each time pouring off. Additional D-PBS (0.5 mL) was added to wells after the washes to keep the cells submerged until microscopic evaluation.
Assays were performed as described for Example 7 using microbubble compositions containing 2% BRU-114 (Composition I of Example 5) as a % of total phospholipid in the composition.
Compositions were reconstituted and assays were performed as described in Example 7 using microbubble compositions containing 1% BRU-114 (Composition I of Example 5) as a % of total phospholipid in the composition.
Assays were performed as described for Example 7 using microbubble compositions containing 2% BRU-114 (as a % of total phospholipid in the composition).

IC50 [1]: 43 µM
inhibition of bubble binding ([2]; 1% composition bubbles): 82.7%
inhibition of bubble binding ([2]; 5% composition bubbles): no inhibition
block of bubble association with HAEC ([2]; Example 7, 10 to 100 μM free TKPPR peptide): blocked
Bubbles Bound (average of duplicate) ([2]; competitor 5 microM): 790
Bubbles Bound (average of duplicate) ([2]; competitor 10 microM): 528
Bubbles Bound (average of duplicate) ([2]; competitor 25 microM): 106
Bubbles Bound % of control binding ([2]; competitor 25 microM, 2% BRU-114 bubbles): 16%
Bubbles Bound (average of duplicate) ([2]; competitor 50 microM): 56
Bubbles Bound (average of duplicate) ([2]; competitor 100 microM): 17
Average % Inhibition of bubble binding ([2]; free TKPPR 5 μM, 1% composition bubbles): 45.7%
Average % Inhibition of bubble binding ([2]; free TKPPR 10 μM, 1% composition bubbles): 79.6%
Average % Inhibition of bubble binding ([2]; free TKPPR 25 μM, 1% composition bubbles): 82.0%
Average % Inhibition of bubble binding ([2]; free TKPPR 50 μM, 1% composition bubbles): 92.7%
Average % Inhibition of bubble binding ([2]; free TKPPR 100 μM, 1% composition bubbles): 93.7%
HAEC bubbles bound ([2]; free TKPPR 100 μM, 5% bubbles (Composition I of Example 5)): 58
SMILES: CC(O)C(N)C(=O)NC(CCCCN)C(=O)N1CCCC1C(=O)N1CCCC1C(=O)NC(CCCNC(=N)N)C(=O)O [TKPPR, L-Arginine, L-threonyl-L-lysyl-L-prolyl-L-prolyl] (H-TKPPR-OH; configuration not given here)
